Laboratory results: patent US11648310B2, “Combination of anti-FGFR4-antibody and bile acid sequestrant” (Daiichi Sankyo Europe GmbH, priority 2015, dated 2023)

Assays:
cynomolgus monkeys [1] = settings: cynomolgus monkey, in vivo
Text: In order to find ort whether any toxic side effects of FGFR4 inhibition are due to elevated bile acid levels, the effect of co-administering agents which interfere with bile acid levels was examined. […] For reducing bile acid levels, the bile acid sequestrant colestyramine (Quantalan™) was used. Ursodeoxycholic acid (Ursofalk™) was used as a second compound for increasing the transport of bile acids out of the liver. Ursodeoxycholic acid is a hydrophilic bile acid that increases bile acid transporter expression and plasma membrane translocation in the liver, (palliative compounds 1 and 2).
The study design included four cynomolgus monkeys (two male, two female) per group. The animals were assigned to the following groups
Duration and frequency: three administrations at 7-day interval (i.e. day 0, day 7 and day 14). The first day of dosing was designated as day 0. […]
The test animals were examined for clinical signs, liver enzymes, bile acid levels and FGF19. FGF19 serum levels were determined using quantiquine human FGF19 ELISA from RND according to the manufacturer's instructions. RNA expression of cyno liver and ileum samples for Cyp7A1 (liver) and FGF19 (Ileum) were determined using the High-Capacity RNA-to-cDNA Kit (Applied Biosystems/Life Technologies) followed by subsequent quantitative real-time PCR. […]

cynomolgus monkeys [2] = settings: cynomolgus monkey, in vivo; remark: listed apart in the source
Text: In order to find ort whether any toxic side effects of FGFR4 inhibition are due to elevated bile acid levels, the effect of co-administering agents which interfere with bile acid levels was examined. […] For reducing bile acid levels, the bile acid sequestrant colestyramine (Quantalan™) was used. Ursodeoxycholic acid (Ursofalk™) was used as a second compound for increasing the transport of bile acids out of the liver. Ursodeoxycholic acid is a hydrophilic bile acid that increases bile acid transporter expression and plasma membrane translocation in the liver, (palliative compounds 1 and 2). The study design included four cynomolgus monkeys (two male, two female) per group. The animals were assigned to the following groups [table] […] Duration and frequency: three administrations at 7-day interval (i.e. day 0, day 7 and day 14). The first day of dosing was designated as day 0. After the last administration, the animals were kept for a treatment-free period of at east 28 days. Method: intravenous injection (slow bolus) using a pump system and a microflex infusion set introduced into a vein after local disinfection with an aqueous solution of ethyl alcohol. After injection, the vein was flushed with sterile physiological saline. Volume administered: 9.52 mL/kg/day. Individual dose volumes were calculated using the latest body weight. Palliative Compounds and Vehicle Route: oral. Frequency: twice daily at 8 hours±1 hour apart. Duration: each day from day 0 to the last day of treatment-free period, i.e. at least 41 days of administrations. Method: naso-gastric intubation (animals are trained to this administration rotate five days before the start of treatment). […] Individual dose volumes were calculated using the latest body weight. […] FGF19 serum levels were determined using quantiquine human FGF19 ELISA from RND according to the manufacturer's instructions. RNA expression of cyno liver and ileum samples for Cyp7A1 (liver) and FGF19 (Ileum) were determined using the High-Capacity RNA-to-cDNA Kit (Applied Biosystems/Life Technologies) followed by subsequent quantitative real-time PCR.

Question: How did the Histopathological changes (cynomolgus monkeys [1]) turn out when “colestyramine [Quantalan™, reference compound]” was run?
Answer: no histopathological changes

Question: What about the Alanine aminotransferase activity (cynomolgus monkeys [2]) of the same substance?
Answer: within the normal range

Question: What about the Bile acid concentration (cynomolgus monkeys [2]) of the same substance?
Answer: within the normal range

Question: What about the “Reversibility of the aspartate aminotransferase effect” value (cynomolgus monkeys [2]) of the same substance?
Answer: reversible
